Reference: patent US12421212B2, “Substituted benzenecarboxamides as IL-17A modulators” (DiCE Alpha, Inc., priority 2019, dated 2025)
Like-named read-outs stand apart in the source and are kept apart here.

Target: T1, IL-17A/A (Homo sapiens, UniProt Q16552)
T1 construct: purchased Genscript Z03228
T1 sequence (Q16552 24-155): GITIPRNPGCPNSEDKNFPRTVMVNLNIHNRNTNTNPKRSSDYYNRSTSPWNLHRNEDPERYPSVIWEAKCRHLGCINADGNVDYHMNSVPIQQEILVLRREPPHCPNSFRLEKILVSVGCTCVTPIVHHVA
Experiment: IL-17A/A HEK-Blue Cell Assay
Type: cell-based

[1] = HEK-Blue IL-17A reporter cell line, SEAP readout at A630, 20 hours incubation with IL-17A/A, top concentration 10 uM, 1 uM or 0.3 uM, read-out: IL-17A/A inhibition (pIC50) (converted)
[2] = HEK-Blue IL-17A reporter cell line, SEAP readout at A630, 20 hours incubation with IL-17A/A, top concentration 10 uM, 1 uM or 0.3 uM

Structure (SMILES)	IC50 [1] [nM]	also measured
CCn1nccc1C(=O)N[C@H](C(=O)Nc1ccc([C@H](C)[C@@H](NS(=O)(=O)CC)C(=O)N2CCN(C)CC2)cc1F)[C@H]1CC[C@H](C)CC1 [Compound 485]	10 to 100	–
CCn1nccc1C(=O)N[C@H](C(=O)Nc1ccc([C@H](C)[C@@H](NC(=O)c2ccnn2C2CCN(C)CC2)C(=O)N2CCN(C)CC2)cc1F)[C@H]1CC[C@H](C)CC1 [Compound 486]	10 to 100	–
CCn1nccc1C(=O)N[C@H](C(=O)Nc1ccc([C@H](C)[C@@H](NC(=O)c2cnsc2)C(=O)N2CCN(C)CC2)cc1F)[C@H]1CC[C@H](C)CC1 [Compound 487]	–	IL-17A/A inhibition (pIC50) [2]: B (8>B≥7 as B)
CCn1nccc1C(=O)N[C@H](C(=O)Nc1ccc([C@H](C)[C@@H](NC(=O)N(C)C2CC2)C(=O)N2CCN(C)CC2)cc1F)[C@H]1CC[C@H](C)CC1 [Compound 488]	< 10	–
CCc1nonc1C(=O)N[C@H](C(=O)Nc1ccc([C@H](C)[C@@H](NC(=O)c2nonc2C)C(=O)N2CCN(C)CC2)cc1F)[C@H]1CC[C@H](C)CC1 [Compound 489]	10 to 100	–
CCc1nonc1C(=O)N[C@H](C(=O)Nc1ccc([C@H](C)[C@@H](NC(=O)c2ccnn2C)C(=O)N2CCN(C)CC2)cc1F)[C@H]1CC[C@H](C)CC1 [Compound 490]	10 to 100	–
CCc1nonc1C(=O)N[C@H](C(=O)Nc1ccc([C@H](C)[C@@H](NC(=O)[C@H](C)F)C(=O)N2CCN(C)CC2)cc1F)[C@H]1CC[C@H](C)CC1 [Compound 491]	10 to 100	–
CCc1nonc1C(=O)N[C@H](C(=O)Nc1ccc([C@H](C)[C@@H](NC(=O)CC2CC2)C(=O)N2CCN(C)CC2)cc1F)[C@H]1CC[C@H](C)CC1 [Compound 492]	< 10	–
CCc1nonc1C(=O)N[C@H](C(=O)Nc1ccc([C@H](C)[C@@H](NC(=O)[C@H](C)CC(=O)O)C(=O)N2CCN(C)CC2)cc1F)[C@H]1CC[C@H](C)CC1 [Compound 493]	10 to 100	–
CCc1nonc1C(=O)N[C@H](C(=O)Nc1ccc([C@H](C)[C@@H](NC(=O)C(C)C)C(=O)N2CCN(C)CC2)cc1F)[C@H]1CC[C@H](C)CC1 [Compound 494]	< 10	–
CCc1nonc1C(=O)N[C@H](C(=O)Nc1ccc([C@H](C)[C@@H](NC(=O)C(C)(C)F)C(=O)N2CCN(C)CC2)cc1F)[C@H]1CC[C@H](C)CC1 [Compound 495]	10 to 100	–
CCc1nonc1C(=O)N[C@H](C(=O)Nc1ccc([C@H](C)[C@@H](NC(=O)[C@H](C)OC)C(=O)N2CCN(C)CC2)cc1F)[C@H]1CC[C@H](C)CC1 [Compound 497]	< 10	–
CCc1nonc1C(=O)N[C@H](C(=O)Nc1ccc([C@H](C)[C@@H](NC(=O)[C@@H]2CCCO2)C(=O)N2CCN(C)CC2)cc1F)[C@H]1CC[C@H](C)CC1 [Compound 498]	10 to 100	–
CCc1nonc1C(=O)N[C@H](C(=O)Nc1ccc([C@H](C)[C@@H](NC(=O)COC)C(=O)N2CCN(C)CC2)cc1F)[C@H]1CC[C@H](C)CC1 [Compound 499]	< 10	–
CCc1nonc1C(=O)N[C@H](C(=O)Nc1ccc([C@H](C)[C@@H](NC(=O)[C@@H](C)F)C(=O)N2CCN(C)CC2)cc1F)[C@H]1CC[C@H](C)CC1 [Compound 500]	< 10	–
CCc1nonc1C(=O)N[C@H](C(=O)Nc1ccc([C@H](C)[C@@H](NC(=O)C(C)(F)F)C(=O)N2CCN(C)CC2)cc1F)[C@H]1CC[C@H](C)CC1 [Compound 501]	10 to 100	–
CCc1nonc1C(=O)N[C@H](C(=O)Nc1ccc([C@H](C)[C@@H](NC(=O)CF)C(=O)N2CCN(C)[C@@H](C)C2)cc1F)[C@H]1CC[C@H](C)CC1 [Compound 510]	–	IC50: 10 to 100 nM
CCc1nonc1C(=O)N[C@H](C(=O)Nc1ccc([C@H](C)[C@@H](NC(C)=O)C(=O)N2CCN(C)[C@@H](C)C2)cc1F)[C@H]1CC[C@H](C)CC1 [Compound 511]	–	IL-17A/A inhibition (pIC50) [2]: A (compounds having a pIC50 of greater than or equal 8 as A)
CCc1nonc1C(=O)N[C@H](C(=O)Nc1ccc([C@H](C)[C@@H](NC(=O)C(F)F)C(=O)N2CCN(C)[C@@H](C)C2)cc1F)[C@H]1CC[C@H](C)CC1 [Compound 512]	–	IL-17A/A inhibition (pIC50) [2]: B (8>B≥7 as B)
CCC(=O)N[C@@H](C(=O)N1CCN(C)CC1)[C@@H](C)c1ccc(NC(=O)C(NC(=O)c2ccnn2CC)C(C)c2ccccc2Cl)c(F)c1 (stereo partly drawn) [Compound 519]	–	IL-17A/A inhibition (pIC50) [2]: X3a (compounds were evaluated up to 0.3 uM and did not inhibit activity by >80%, however they showed some activity at 0.3 uM (less than 80% and more than 20%))
CCC(=O)N[C@@H](C(=O)N1CCN(C)CC1)[C@@H](C)c1ccc(NC(=O)C(NC(=O)c2ccnn2CC)C(C)c2ccccc2Cl)c(F)c1 (stereo partly drawn) [Compound 520]	–	IL-17A/A inhibition (pIC50) [2]: X1b (compounds were evaluated up to 10 uM and inhibited activity at 10 uM by less than 20%)
CCC(=O)N[C@@H](C(=O)N1CCN(C)CC1)[C@@H](C)c1ccc(NC(=O)C(NC(=O)c2nonc2CC)C(C)c2ccccc2Cl)c(F)c1 (stereo partly drawn) [Compound 522]	–	IL-17A/A inhibition (pIC50) [2]: X1b (compounds were evaluated up to 10 uM and inhibited activity at 10 uM by less than 20%)

The next lines start with results.

IC50 [1] [nM]	Structure (SMILES)	also measured
10 to 100	CCc1nonc1C(=O)N[C@H](C(=O)Nc1ccc([C@H](C)[C@@H](NC(=O)C(C)(F)F)C(=O)N2CCN(C)[C@H](C)C2)cc1F)[C@H]1CC[C@H](C)CC1 [Compound 503]	–
< 10	CCc1nonc1C(=O)N[C@H](C(=O)Nc1ccc([C@H](C)[C@@H](NC(=O)C(F)(F)CC)C(=O)N2CCN(C)[C@H](C)C2)cc1F)[C@H]1CC[C@H](C)CC1 [Compound 504]	–
10 to 100	CCc1nonc1C(=O)N[C@H](C(=O)Nc1ccc([C@H](C)[C@@H](NC(=O)C2(F)CCC2)C(=O)N2CCN(C)[C@H](C)C2)cc1F)[C@H]1CC[C@H](C)CC1 [Compound 505]	–
< 10	CCc1nonc1C(=O)N[C@H](C(=O)Nc1ccc([C@H](C)[C@@H](NC(=O)CC2CC2)C(=O)N2CCN(C)[C@@H](C)C2)cc1F)[C@H]1CC[C@H](C)CC1 [Compound 506]	–
< 10	CCc1nonc1C(=O)N[C@H](C(=O)Nc1ccc([C@H](C)[C@@H](NC(=O)N(C)C2CC2)C(=O)N2CCN(C)[C@H](C)C2)cc1F)[C@H]1CC[C@H](C)CC1 [Compound 508]	–
10 to 100	CCc1nonc1C(=O)N[C@H](C(=O)Nc1ccc([C@H](C)[C@@H](NC(=O)N(C)C2CC2)C(=O)N2CCN(C)[C@@H](C)C2)cc1F)[C@H]1CC[C@H](C)CC1 [Compound 509]	–
< 10	CCc1nonc1C(=O)N[C@H](C(=O)Nc1ccc([C@H](C)[C@@H](NC(=O)N(C)C2CC2)C(=O)N2CCN(C)CC2)cc1F)[C@H]1CC[C@H](C)CC1 [Compound 513]	–
< 10	CCc1nonc1C(=O)N[C@H](C(=O)Nc1ccc([C@H](C)[C@@H](NC(=O)N(C)C)C(=O)N2CCN(C)CC2)cc1F)[C@H]1CC[C@H](C)CC1 [Compound 514]	–
10 to 100	CCc1nonc1C(=O)N[C@H](C(=O)Nc1ccc([C@H](C)[C@@H](NC(=O)N2CCCC2)C(=O)N2CCN(C)CC2)cc1F)[C@H]1CC[C@H](C)CC1 [Compound 515]	–
< 10	CCc1nonc1C(=O)N[C@H](C(=O)Nc1ccc([C@H](C)[C@@H](NC(=O)N(C)C2CCC2)C(=O)N2CCN(C)CC2)cc1F)[C@H]1CC[C@H](C)CC1 [Compound 516]	–
< 10	CCc1nonc1C(=O)N[C@H](C(=O)Nc1ccc([C@H](C)[C@@H](NC(=O)NC2CC2)C(=O)N2CCN(C)CC2)cc1F)[C@H]1CC[C@H](C)CC1 [Compound 517]	–
10 to 100	CCc1nonc1C(=O)N[C@H](C(=O)Nc1ccc([C@H](C)[C@@H](NS(=O)(=O)CC)C(=O)N2CCN(C)CC2)cc1F)[C@H]1CC[C@H](C)CC1 [Compound 518]	–
100 to 10000	CCC(=O)N[C@@H](C(=O)N1CCN(C)CC1)[C@@H](C)c1ccc(NC(=O)C(NC(=O)c2nonc2CC)C(C)c2ccccc2Cl)c(F)c1 (stereo partly drawn) [Compound 521]	–
< 10	CCC(=O)N[C@@H](C(=O)N1CCN(C)CC1)[C@@H](C)c1ccc(NC(=O)[C@@H](NC(=O)C(F)(F)c2cnn(CC)c2)[C@H]2CC[C@H](C)CC2)c(F)c1 [Compound 523]	–
10 to 100	CCC(=O)N[C@@H](C(=O)N1CCN(C)CC1)[C@@H](C)c1ccc(NC(=O)[C@@H](NC(=O)c2occc2CC)[C@H]2CC[C@H](C)CC2)c(F)c1 [Compound 524]	–
10 to 100	CCn1nnnc1C(=O)N[C@H](C(=O)Nc1ccc([C@H](C)[C@@H](NC(=O)c2cnns2)C(=O)N2CCN(C)CC2)cc1F)[C@H]1CC[C@H](C)CC1 [Compound 525]	–
10 to 100	C[C@@H](c1ccc(NC(=O)[C@@H](NC(=O)c2coc3ccncc23)[C@H]2CC[C@H](C)CC2)c(F)c1)[C@@H](NC(=O)c1cnns1)C(=O)N1CCN(C)CC1 [Compound 526]	–
10 to 100	CCC(=O)N[C@@H](C(=O)N1CCN(C)CC1)[C@@H](C)c1ccc(NC(=O)[C@@H](NC(=O)c2nnnn2CC)[C@H]2CC[C@H](C)CC2)c(F)c1 [Compound 527]	–
< 10	CCC(=O)N[C@@H](C(=O)N1CCN(C)CC1)[C@@H](C)c1ccc(NC(=O)[C@@H](NC(=O)C(F)(F)c2cncc(C#N)c2)[C@H]2CC[C@H](C)CC2)c(F)c1 [Compound 530]	–
10 to 100	CCC(=O)N[C@@H](C(=O)N1CCC(O)CC1)[C@@H](C)c1ccc(NC(=O)[C@@H](NC(=O)c2cnn(C3CCCC3)c2)[C@H]2CC[C@H](C)CC2)c(F)c1 [Compound 531]	–
10 to 100	CCC(=O)N[C@@H](C(=O)N1CCN(Cc2ccccc2)CC1)[C@@H](C)c1ccc(NC(=O)[C@@H](NC(=O)C(F)(F)c2cncc(OC)c2)[C@H]2CC[C@H](C)CC2)c(F)c1 [Compound 532]	–
< 10	CCC(=O)N[C@@H](C(=O)N1CCC(C)(O)CC1)[C@@H](C)c1ccc(NC(=O)[C@@H](NC(=O)C(F)(F)c2cnn(CC)c2)[C@H]2CC[C@H](C)CC2)c(F)c1 [Compound 533]	–
10 to 100	CCC(=O)N[C@@H](C(=O)N1CCC(F)(F)CC1)[C@@H](C)c1ccc(NC(=O)[C@@H](NC(=O)c2conc2C(C)(C)N)[C@H]2CC[C@H](C)CC2)c(F)c1 [Compound 534]	–
